Experimental data from the supplement of paper PMC10307832.

Assays:
Experiment in all cases: relative viability (nuclei count vs DMSO), 5 days (fraction); higher = more cells survive
A-427 = tested on: A-427
Outline: (§1)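 Lung cancer cell lines in 1536-well plates were dosed by pin tool the day after seeding, either with one drug alone or with a fixed anchor-drug dose plus five library-drug doses (not always all listed) in √10 steps. After 5 days, cells were fixed and their nuclei stained in one step (final 0.05% Triton X-100, 1% formaldehyde, 1 ug/ml Hoechst), then counted on 4× images. Relative viability is the nuclei count in treated wells divided by that in vehicle wells. Values are medians of duplicate plates.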

HCC-15 = tested on: HCC-15
Outline: as §1

HCC-78 = tested on: HCC-78
Outline: as §1

HOP-62 = tested on: HOP-62
Outline: as §1

LC-2-ad = tested on: LC-2-ad
Outline: as §1

LOU-NH91 = tested on: LOU-NH91
Outline: as §1

LXF-289 = tested on: LXF-289
Outline: as §1

NCI-H1734 = tested on: NCI-H1734
Outline: as §1

NCI-H1755 = tested on: NCI-H1755
Outline: as §1

NCI-H1792 = tested on: NCI-H1792
Outline: as §1

NCI-H1915 = tested on: NCI-H1915
Outline: as §1

NCI-H1975 = tested on: NCI-H1975
Outline: as §1

NCI-H2126 = tested on: NCI-H2126
Outline: as §1

NCI-H2228 = tested on: NCI-H2228
Outline: as §1

NCI-H2342 = tested on: NCI-H2342
Outline: as §1

NCI-H2347 = tested on: NCI-H2347
Outline: as §1

NCI-H358 = tested on: NCI-H358
Outline: as §1

NCI-H460 = tested on: NCI-H460
Outline: as §1

NCI-H647 = tested on: NCI-H647
Outline: as §1

PC-3 [JPC-3] = tested on: PC-3 [JPC-3]
Outline: as §1

RERF-LC-KJ = tested on: RERF-LC-KJ
Outline: as §1

SK-LU-1 = tested on: SK-LU-1
Outline: as §1

SW 1573 = tested on: SW 1573
Outline: as §1

NC(=O)Nc1cc(-c2cccc(F)c2)sc1C(=O)N[C@H]1CCCNC1 [AZD7762] + CC(=O)c1c(C)c2cnc(Nc3ccc(N4CCNCC4)cn3)nc2n(C2CCCC2)c1=O [Palbociclib] (partner 0.5 µM)
relative viability (A-427; first compound 0.01 µM): 0.568
relative viability (A-427; first compound 0.03162 µM): 0.552
relative viability (A-427; first compound 0.1 µM): 0.595
relative viability (A-427; first compound 0.3162 µM): 0.563
relative viability (A-427; first compound 1 µM): 0.334
relative viability (HCC-15; first compound 0.01 µM): 0.74
relative viability (HCC-15; first compound 0.03162 µM): 0.738
relative viability (HCC-15; first compound 0.1 µM): 0.802
relative viability (HCC-15; first compound 0.3162 µM): 0.676
relative viability (HCC-15; first compound 1 µM): 0.718
relative viability (HCC-78; first compound 0.01 µM): 0.444
relative viability (HCC-78; first compound 0.03162 µM): 0.461
relative viability (HCC-78; first compound 0.1 µM): 0.444
relative viability (HCC-78; first compound 0.3162 µM): 0.518
relative viability (HCC-78; first compound 1 µM): 0.454
relative viability (HOP-62; first compound 0.01 µM): 0.476
relative viability (HOP-62; first compound 0.03162 µM): 0.394
relative viability (HOP-62; first compound 0.1 µM): 0.545
relative viability (HOP-62; first compound 0.3162 µM): 0.484
relative viability (HOP-62; first compound 1 µM): 0.487
relative viability (LC-2-ad; first compound 0.01 µM): 0.499
relative viability (LC-2-ad; first compound 0.03162 µM): 0.521
relative viability (LC-2-ad; first compound 0.1 µM): 0.463
relative viability (LC-2-ad; first compound 0.3162 µM): 0.365
relative viability (LC-2-ad; first compound 1 µM): 0.367
relative viability (LOU-NH91; first compound 0.01 µM): 0.528
relative viability (LOU-NH91; first compound 0.03162 µM): 0.525
relative viability (LOU-NH91; first compound 0.1 µM): 0.542
relative viability (LOU-NH91; first compound 0.3162 µM): 0.609
relative viability (LOU-NH91; first compound 1 µM): 0.503
relative viability (LXF-289; first compound 0.01 µM): 0.569
relative viability (LXF-289; first compound 0.03162 µM): 0.689
relative viability (LXF-289; first compound 0.1 µM): 0.628
relative viability (LXF-289; first compound 0.3162 µM): 0.679
relative viability (LXF-289; first compound 1 µM): 0.668
relative viability (NCI-H1734; first compound 0.01 µM): 0.38
relative viability (NCI-H1734; first compound 0.03162 µM): 0.364
relative viability (NCI-H1734; first compound 0.1 µM): 0.395
relative viability (NCI-H1734; first compound 0.3162 µM): 0.356
relative viability (NCI-H1734; first compound 1 µM): 0.317
relative viability (NCI-H1755; first compound 0.01 µM): 0.483
relative viability (NCI-H1755; first compound 0.03162 µM): 0.488
relative viability (NCI-H1755; first compound 0.1 µM): 0.466
relative viability (NCI-H1755; first compound 0.3162 µM): 0.495
relative viability (NCI-H1755; first compound 1 µM): 0.442
relative viability (NCI-H1792; first compound 0.01 µM): 0.725
relative viability (NCI-H1792; first compound 0.03162 µM): 0.705
relative viability (NCI-H1792; first compound 0.1 µM): 0.677
relative viability (NCI-H1792; first compound 0.3162 µM): 0.731
relative viability (NCI-H1792; first compound 1 µM): 0.785
relative viability (NCI-H1915; first compound 0.01 µM): 0.552
relative viability (NCI-H1915; first compound 0.03162 µM): 0.608
relative viability (NCI-H1915; first compound 0.1 µM): 0.606
relative viability (NCI-H1915; first compound 0.3162 µM): 0.617
relative viability (NCI-H1915; first compound 1 µM): 0.563
relative viability (NCI-H1975; first compound 0.01 µM): 0.519
relative viability (NCI-H1975; first compound 0.03162 µM): 0.549
relative viability (NCI-H1975; first compound 0.1 µM): 0.585
relative viability (NCI-H1975; first compound 0.3162 µM): 0.352
relative viability (NCI-H1975; first compound 1 µM): 0.357
relative viability (NCI-H2126; first compound 0.01 µM): 0.353
relative viability (NCI-H2126; first compound 0.03162 µM): 0.363
relative viability (NCI-H2126; first compound 0.1 µM): 0.346
relative viability (NCI-H2126; first compound 0.3162 µM): 0.369
relative viability (NCI-H2126; first compound 1 µM): 0.397
relative viability (NCI-H2228; first compound 0.01 µM): 0.787
relative viability (NCI-H2228; first compound 0.03162 µM): 0.937
relative viability (NCI-H2228; first compound 0.1 µM): 0.896
relative viability (NCI-H2228; first compound 0.3162 µM): 0.283
relative viability (NCI-H2228; first compound 1 µM): 0.156
relative viability (NCI-H2342; first compound 0.01 µM): 0.492
relative viability (NCI-H2342; first compound 0.03162 µM): 0.513
relative viability (NCI-H2342; first compound 0.1 µM): 0.447
relative viability (NCI-H2342; first compound 0.3162 µM): 0.483
relative viability (NCI-H2342; first compound 1 µM): 0.505
relative viability (NCI-H2347; first compound 0.01 µM): 0.542
relative viability (NCI-H2347; first compound 0.03162 µM): 0.469
relative viability (NCI-H2347; first compound 0.1 µM): 0.479
relative viability (NCI-H2347; first compound 0.3162 µM): 0.509
relative viability (NCI-H2347; first compound 1 µM): 0.461
relative viability (NCI-H358; first compound 0.01 µM): 0.182
relative viability (NCI-H358; first compound 0.03162 µM): 0.141
relative viability (NCI-H358; first compound 0.1 µM): 0.111
relative viability (NCI-H358; first compound 0.3162 µM): 0.105
relative viability (NCI-H358; first compound 1 µM): 0.0964
relative viability (NCI-H460; first compound 0.01 µM): 0.254
relative viability (NCI-H460; first compound 0.03162 µM): 0.117
relative viability (NCI-H460; first compound 0.1 µM): 0.0606
relative viability (NCI-H460; first compound 0.3162 µM): 0.0344
relative viability (NCI-H460; first compound 1 µM): 0.0224
relative viability (NCI-H647; first compound 0.01 µM): 0.434
relative viability (NCI-H647; first compound 0.03162 µM): 0.424
relative viability (NCI-H647; first compound 0.1 µM): 0.359
relative viability (NCI-H647; first compound 0.3162 µM): 0.163
relative viability (NCI-H647; first compound 1 µM): 0.125
relative viability (PC-3 [JPC-3]; first compound 0.01 µM): 0.558
relative viability (PC-3 [JPC-3]; first compound 0.03162 µM): 0.541
relative viability (PC-3 [JPC-3]; first compound 0.1 µM): 0.537
relative viability (PC-3 [JPC-3]; first compound 0.3162 µM): 0.538
relative viability (PC-3 [JPC-3]; first compound 1 µM): 0.504
relative viability (RERF-LC-KJ; first compound 0.01 µM): 1.09
relative viability (RERF-LC-KJ; first compound 0.03162 µM): 1.07
relative viability (RERF-LC-KJ; first compound 0.1 µM): 1.06
relative viability (RERF-LC-KJ; first compound 0.3162 µM): 1.01
relative viability (RERF-LC-KJ; first compound 1 µM): 0.965
relative viability (SK-LU-1; first compound 0.01 µM): 0.364
relative viability (SK-LU-1; first compound 0.03162 µM): 0.418
relative viability (SK-LU-1; first compound 0.1 µM): 0.365
relative viability (SK-LU-1; first compound 0.3162 µM): 0.232
relative viability (SK-LU-1; first compound 1 µM): 0.232
relative viability (SW 1573; first compound 0.01 µM): 0.424
relative viability (SW 1573; first compound 0.03162 µM): 0.453
relative viability (SW 1573; first compound 0.1 µM): 0.466
relative viability (SW 1573; first compound 0.3162 µM): 0.377
relative viability (SW 1573; first compound 1 µM): 0.314
